The numbers were not newly measured in US20170258967A1, “COMPOSITIONS AND METHODS FOR DELIVERING AN AGENT TO A WOUND” (UNIVERSITY OF MEMPHIS RESEARCH FOUNDATION, priority 2014, published 2017), which cites them from elsewhere.

The test system of the series is S. aureus.

Take `CCCCCCC/C=C\C(=O)O` [Cis-2-decenoic acid, Cis-2-Decenoic Acid]: the “effect on S. aureus growth and biofilm formation” value was “inhibit S. aureus growth and biofilm formation”.
